Source: patent US20240217932A1, “PYRIDIUM ESTERS” (The Procter & Gamble Company, priority 2022, published 2024)

Experiments:
staphylococcus aureus = assay: Surface Antimicrobial Kill Testing Method, activity normalized to triclosan internal standard (Gram positive); type: cell-based
Protocol: (§1) Inoculum is prepared by streaking microorganism onto a Tryptic Soy Agar (TSA) plate and incubating for 24 h at 33° C. Plated bacteria is resuspended in saline until the transmittance percentage falls within the accepted range for ˜10^8 cfu/mL. For K. pneumonia (Kp) and P. aeruginosa (Pa), this is 31.00-33.00% T. For S. aureus (Sa) this is 23.00-25.00% T. A 10× concentration is made by spinning down the prepared inoculum, removing the supernatant saline from the bacterial pellet, then resuspending the pellet in 1/10th of the original volume of saline. The final inoculum is prepared with 5% of “soil” in the form of Fetal Bovine Serum (FBS).
(§2) A 18×18 mm sterile glass coverslip is placed into an appropriate container (e.g. petri dish). 20 μL of prepared inoculum is added to the glass coverslip. Inoculum is then air-dried for 30 minutes in a 36° C. incubator. After drying, 40 μL of test sample is added on top of the dried inoculum. This is incubated at room temperature for the desired contact time. 5 mL of neutralizing media (Modified Letheen Broth+Tween+Lecithin (MLBTL)) is added to the coverslip and shaken on an orbital shaker for 5 minutes to ensure proper neutralization and extraction. Viability is then assessed of the neutralized and extracted sample by traditional/alternative microbiological techniques.
(§3) The normalized antimicrobial activity reported in the performance examples below was generated from detection time data obtained as described in the Surface Antimicrobial Kill Test Method. To account for day-to-day variability an internal standard was tested with each series. The internal standard was a composition of 0.25 wt % Triclosan, Sigma Aldrich (St. Louis, MO, USA; CAS #3380-34-5, 97.0-103.0% (active substance, GC)), 50 wt % DMSO, and 49.75 wt % H2O, with a final solution pH of 7.7. Normalized activity is reported following the equation 1 below.
(§4) Normalized Activity=(αΔDT-βΔDT)/(γΔDT-βΔDT) equation 1.
(§5) where, αΔDT is the average detection time of the antimicrobial compound, and γΔDT is the average detection time of the reference triclosan internal standard, and βΔDT is the average detection time of the background unperturbed bacteria.
(§6) Pyridinium esters of the present disclosure were tested as aqueous solutions in the Surface Antimicrobial Kill Testing Method above. To prepare test solutions pyridinium esters were first dissolved in the appropriate solvent. Second the selected surfactant is added to the mixture. After vortex (1 min, Vortex-2 Genie, vortex speed 8) mixing, the samples were then diluted with ½ portion of reverse osmosis water (RO water, Millipore Direct-Q™, pH 6). The aqueous solution was then vortexed (1 min, Vortex-2 Genie, vortex speed 8), to which the second ½ portion of water is added. The pH of the solution was then adjusted to the target pH using either 1N HCl, Glacial Acetic Acid, or 1N NaOH. The final solution was then vortexed (1 min, Vortex-2 Genic, vortex speed 8). An example batch sheet is provided below in Table 1.
(§7) In Performance Examples 1-4 below, formulations comprising solvent, surfactant, and pyridinium esters according to the present disclosure (e.g., based on hexyl 3-(alkylpyridinium)acrylate halides), are evaluated via microbial surface kill tests according to the Surface Antimicrobial Kill Testing Method provided above. After treatment, microbial growth is referenced and reported to a triclosan sample and unaltered microbes according to the Normalization of Antimicrobial Activity provided above.

[1] = Stability of the isolated solid by 1H NMR; type: physicochemical
Gram Negative bacteria = assay: Surface Antimicrobial Kill Testing Method, activity normalized to triclosan internal standard (Gram negative); type: cell-based; conditions: water, pH 7
Protocol: as §1, §2, §3, §4, §5, §6, §7

[2] = 0.5 wt % compound, 3 wt % DEGBE, 1 wt % EcoSurf EH-9, 95.5 wt % reverse osmosis water, pH 7

For CCCCCCOC(=O)/C=C/c1cccnc1 [Synthetic Example 1, hexyl 3-(3-pyridyl)acrylate], the “Gram Positive Referenced Microbial Activity” value (staphylococcus aureus; [2]) was 0.11.
With CCCCCCOC(=O)/C=C/c1cc[n+](C)cc1.[I-] [Synthetic Example 4, hexyl 3-(4-methylpyridinium)acrylate iodide] the “Gram Positive Referenced Microbial Activity” value (staphylococcus aureus; [2]) was 1.2 and the “Stability of the independent solid by 1H NMR” value (from here on “Stability”) [1] was “stable for several months”.
For CCCCCCCC[n+]1ccc(/C=C/C(=O)OCCCCCC)cc1.[Br-] [Synthetic Example 8, hexyl 3-(4-octylpyridinium)acrylate bromide], the “Gram Positive Referenced Microbial Activity” value (staphylococcus aureus; [2]) was >1.33 and the “Stability” value [1] was “stable for several months”.
In the case of CCCCCCOC(=O)/C=C/c1ccc[n+](C)c1.[I-] [Synthetic Example 3, hexyl 3-(3-methylpyridinium)acrylate iodide], the “Gram Positive Referenced Microbial Activity” value (staphylococcus aureus; [2]) is reported as 0.21 and the “Stability” value [1] is reported as “stable for several months”.
With CCCCCCCC[n+]1cccc(/C=C/C(=O)OCCCCCC)c1.[Br-] [Synthetic Example 7, hexyl 3-(3-octylpyridinium)acrylate bromide] the “Gram Positive Referenced Microbial Activity” value (staphylococcus aureus; [2]) was >1.42 and the “Stability” value [1] was “stable for several months”.
In the case of CCCCCCOC(=O)/C=C/c1ccc[n+](CCCCCC)c1.[Br-] [Synthetic Example 5, hexyl 3-(3-hexylpyridinium)acrylate bromide], the “Gram Positive Referenced Microbial Activity” value (staphylococcus aureus; 0.063 wt % Synthetic Example 5, 1 wt % EcoSurf EH9, 3 wt % DEGBE, water, pH 7) is reported as 0.55, the “Gram Positive Referenced Microbial Activity” value (staphylococcus aureus; 0.125 wt % Synthetic Example 5, 1 wt % EcoSurf EH9, 3 wt % DEGBE, water, pH 7) is reported as 0.93 and the “Gram Positive Referenced Microbial Activity” value (staphylococcus aureus; 0.25 % Synthetic Example 5, 1 wt % Crodasinic LS30, 3 wt % DEGBE, water, pH 7) is reported as 0.42. The “Gram Positive Referenced Microbial Activity” value (staphylococcus aureus; 0.25 % Synthetic Example 5, 1 wt % EH6, 3 wt % DEGBE, water, pH 7) was 1.09, the “Gram Positive Referenced Microbial Activity” value (staphylococcus aureus; 0.25 % Synthetic Example 5, 1 wt % L24-9, 3 wt % DEGBE, water, pH 7) was 0.54 and the “Gram Positive Referenced Microbial Activity” value (staphylococcus aureus; 0.25 % Synthetic Example 5, 1 wt % Miranol Ultra, 3 wt % DEGBE, water, pH 7) was 0.78. For the same compound, the “Gram Positive Referenced Microbial Activity” value (staphylococcus aureus; 0.25 % Synthetic Example 5, 1 wt % Plantaren 2000, 3 wt % DEGBE, water, pH 7) was >2.33, the “Gram Positive Referenced Microbial Activity” value (staphylococcus aureus; 0.25 % Synthetic Example 5, 1 wt % SLS, 3 wt % DEGBE, water, pH 7) was 0.20 and the “Gram Positive Referenced Microbial Activity” value (staphylococcus aureus; 0.25 % Synthetic Example 5, 1 wt % Tween80, 3 wt % DEGBE, water, pH 7) was 0.57. For the same compound, the “Gram Positive Referenced Microbial Activity” value (staphylococcus aureus; 0.25 wt % Synthetic Example 5, 1 wt % EcoSurf EH9, 3 wt % DEGBE, water, pH 7) was 2.02, the “Gram Positive Referenced Microbial Activity” value (staphylococcus aureus; 0.5 wt % Synthetic Example 5, 1 wt % EcoSurf EH9, 3 wt % DEGBE, water, pH 7 (concentration series)) was >2.87 and the “Gram Positive Referenced Microbial Activity” value (staphylococcus aureus; [2]) was >1.42. The “pH range of formulations in which antimicrobial efficacy is maintained” value (staphylococcus aureus; formulations of table 16) was 3-9, the “Concentration down to which antimicrobial efficacy against staphylococcus aureus is maintained” value (staphylococcus aureus; formulations of table 17) was ≥ 0.063 wt % and the “Gram Positive Referenced Microbial Activity” value (staphylococcus aureus; pH 3, 0.5 wt % compound, 1 wt % EcoSurf EH9, 3 wt % DEGBE, 95.5 wt % water) was >2.58. For the same compound, the “Gram Positive Referenced Microbial Activity” value (staphylococcus aureus; pH 7, 0.5 wt % compound, 1 wt % EcoSurf EH9, 3 wt % DEGBE, 95.5 wt % water (pH series)) was >2.8, the “Gram Positive Referenced Microbial Activity” value (staphylococcus aureus; pH 9, 0.5 wt % compound, 1 wt % EcoSurf EH9, 3 wt % DEGBE, 95.5 wt % water) was 2.53 and the “Gram Negative Referenced Microbial Activity” value (Gram Negative bacteria; 0.25 % Synthetic Example 5, 1 wt % Crodasinic LS30, 3 wt % DEGBE) was 0.41. For the same compound, the “Gram Negative Referenced Microbial Activity” value (Gram Negative bacteria; 0.25 % Synthetic Example 5, 1 wt % EH6, 3 wt % DEGBE) was >2.58, the “Gram Negative Referenced Microbial Activity” value (Gram Negative bacteria; 0.25 % Synthetic Example 5, 1 wt % L24-9, 3 wt % DEGBE) was 1.34 and the “Gram Negative Referenced Microbial Activity” value (Gram Negative bacteria; 0.25 % Synthetic Example 5, 1 wt % Miranol Ultra, 3 wt % DEGBE) was 1.92. The “Gram Negative Referenced Microbial Activity” value (Gram Negative bacteria; 0.25 % Synthetic Example 5, 1 wt % Plantaren 2000, 3 wt % DEGBE) was >2.58, the “Gram Negative Referenced Microbial Activity” value (Gram Negative bacteria; 0.25 % Synthetic Example 5, 1 wt % SLS, 3 wt % DEGBE) was 0.08 and the “Gram Negative Referenced Microbial Activity” value (Gram Negative bacteria; 0.25 % Synthetic Example 5, 1 wt % Tween80, 3 wt % DEGBE) was 1.37. For the same compound, the “Stability” value [1] was “stable for several months”.
For CCCCCCOC(=O)/C=C/c1cc[n+](CCCCCC)cc1.[Br-] [Synthetic Example 6, hexyl 3-(4-hexylpyridinium)acrylate bromide], the “Gram Positive Referenced Microbial Activity” value (staphylococcus aureus; [2]) was >1.39 and the “Stability” value [1] was “stable for several months”.
